# Key:
# mouse embryos [1] = test: Culture to blastocyst and immunofluorescence analysis (development, cell numbers, micronuclei per cell); type: cell-based; settings: for micronuclei per cell in blastocyst: 2-cell stage to blastocyst, controls 0.022, P<0.05; for number of micronuclei compared to controls: P<0.01
# Method: (§1) Embryo collection, culture and chemical treatments. All experiments were approved by the Centre de Recherche du Centre Hospitalier de l'Université de Montréal (CRCHUM) Comité Institutionnel de Protection des Animaux (CIPA). Two-cell embryos were obtained from superovulated 2-3-month-old CD-1 female mice mated with CD-1 males. Embryos were collected in M2 media and cultured in KSOM media drops covered in mineral oil at 37° C. in 5% CO2. For chemical treatments, media was supplemented with the following compounds: AZ3146 (20 μM), GSK923295 (various concentrations), nocodazole (various concentrations), Cytochalasin B (5 μg/ml), MG132 (25 μM), proTAME (various concentrations). All drug stocks are dissolved in DMSO. For experiments involving proTAME, embryos were cultured without oil in 500 μL of media in 4-well plates.
# (§2) Z-stack images of embryos (˜50 μm) with step size 2 μm were obtained at a time interval of 30 sec for experiments concerning H2BRFP only, 2 min for H2B:RFP-GAP43:GFP, and 3 min H2B:RFP-Mad1:EGFP experiments. For live-cell experiments at two-cells, eight cell, morula and blastocyst, imaging was started at ˜48 h, 72 h, 84 h and ˜96 h post-hCG administration and mating, respectively. For immunofluorescence embryos were fixed in 2% PFA in PBS (20 min) and permeabilised in 0.25% Triton™ X-100 in PBS (10 min), for Mad2 immunofluorescence embryos were fixed for 15 min in PHEM buffer containing 2% PFA and 0.05% Triton™ X-100, and permeabilised in 0.05% Triton™ X in PHEM buffer for 15 min. Blocking was performed in 3% bovine serum albumin in PBS, for 1 hr at 37° C. or overnight at 4° C. Primary antibodies used were rabbit anti-Mad2 (1:300), mouse anti-alpha-Tubulin (1:1000), anti-rabbit and anti-mouse AlexaFluor secondaries were used at 1:1000 dilution. Alexa-555-Phalloidin (1:300) and Hoechst (1:1000) were used to visualize F-actin and DNA, respectively. Briefly, immunofluorescence confocal imaging was performed on a Leica™ SP8 microscope using a 63×1.4 NA oil objective lens, using a 1.5 μm optical section and acquiring Z-stacks with a step size of 1.5 μm, described in more detail in (Vázquez-Diez et al., 2018). In fixed-cell experiments involving GSK923295 and nocodazole embryos were exposed from the 8-cell stage, ˜72 h post-hCG and mating for ˜16 h and immediately fixed. Blastocyst immunofluorescence analysis was performed at late blastocyst stage, ˜120 h post-hCG.
# (§3) All image analysis was performed using Fiji software. Time-lapse Z-stacks were examined to determine mitosis duration and identify chromosome alignment and segregation errors. Spindle length measurements were performed measuring the distance between spindle poles, using Pythagoras' theorem where spindle poles were located on different Z-slices. Mad2 Immunofluorescence was quantified by subtracting nuclear envelope and background maximum grey values. To calculate cell volume for each cell at metaphase, areas delineated by the cell membrane (GAP43:GFP signal) were manually traced and measured at each Z-slice, the sum of the areas was multiplied by the step size (2 μm). All data analysis was performed using GraphPad™ Prism, statistical test used were accordingly noted in figures, α=0.05.
# mouse embryos [2] = test: Live imaging of chromosome segregation dynamics in H2B:RFP-expressing embryos; type: cell-based; settings: for change in mitosis duration: 10 nM nocodazole
# Method: as §1
# (§4) All imaging was performed on a Leica™ SP8 confocal microscope with HyD detectors. For live imaging embryos were placed in a heated top-stage incubator with CO2 supply and imaged with a 20×0.75 NA objective as previously described (Vázquez-Diez et al., 2016). All imaging was performed in ˜2 μL drops under mineral oil, for experiments involving proTAME, embryos were cultured in Ibidi micro-insert wells mounted on a glass-bottom dish with distilled water and the inventors' setup was modified to provide humidified CO2 gas supply, previously described in extensive detail (Vázquez-Diez et al., 2018).
# as §2, §3
# mouse embryos [3] = test: Fixed-cell analysis of embryos after ~16 h exposure from the 8-cell stage (mitotic index, misaligned chromosomes, Mad2); type: cell-based; settings: for metaphase cells with multiple misaligned chromosomes: morulae, 16 hour exposure
# Method: as §1, §2, §3
# mouse embryos [4] = test: Live imaging of H2B:RFP and Mad1:EGFP-expressing embryos; type: cell-based; settings: 500 nM GSK923295
# Method: (§5) All micromanipulations were performed on a Leica™ DM14000 inverted microscope fitted with Narashige micromanipulators. […] Embryos where thoroughly washed in over a dozen drops of M2 media prior to transfer and incubation in equilibrated KSOM medium for at least 2 hours prior to imaging to allow them to recover from the cytoplasmic removal procedure. Microinjections were performed as described previously (Nakagawa and FitzHarris, 2016; Vázquez-Diez and FitzHarris, 2018; Vázquez-Diez et al., 2016). cRNA was synthesized using mMessenger Machine kit (Ambion) as previously (Nakagawa et al., 2017; Vázquez-Diez et al., 2018), from the following plasmids; pRN4-H2B:RFP, psC2-GAP43:GFP, MajSatTALE:mClover (pTALYM3B15)(Miyanari et al., 2013).
# as §4, with “2018). […]” for “2018).”
# mouse embryos [5] = test: Cytoplasmic removal and live imaging of H2B:RFP-GAP43:GFP embryos (mitosis duration vs cell volume); type: cell-based; settings: 10 nM nocodazole, un-manipulated or cytoplasmically reduced
# Method: as §5
# All imaging was performed on a Leica™ SP8 confocal microscope with HyD detectors. For live imaging embryos were placed in a heated top-stage incubator with CO2 supply and imaged with a 20×0.75 NA objective as previously described (Vázquez-Diez et al., 2016). […]
# All image analysis was performed using Fiji software. […] Mad2 Immunofluorescence was quantified by subtracting nuclear envelope and background maximum grey values. To calculate cell volume for each cell at metaphase, areas delineated by the cell membrane (GAP43:GFP signal) were manually traced and measured at each Z-slice, the sum of the areas was multiplied by the step size (2 μm). […]
# oocytes = test: Polar body extrusion (PBE) of meiosis-I in microinjected oocytes; type: cell-based, mouse; settings: oocytes microinjected with Mad2 MO vs Control MO
# [6] = 500 nM GSK923295, 8-16 cell transition
# [7] = proTAME 0.01 nM-100 nM from the 2-cell stage
compound,measurement,setting,value
Cc1ncc([N+](=O)[O-])n1CCOC(=O)NC(Nc1ncccn1)C(Cl)(Cl)Cl (stereo not drawn) [APCin],micronuclei,mouse embryos [1]; APCin 10 μM,reduction in micronuclei
CC(C)Oc1ccc(C(=O)N[C@H](CNC(=O)CN(C)C)Cc2ccc(-c3cn4cccc([C@H](C)O)c4n3)cc2)cc1Cl [GSK923295],"number of severely misaligned chromosomes at anaphase onset (span, all cases)",mouse embryos [2]; [6],"at least one, and as many as nine"
same,severely misaligned chromosomes at anaphase onset (mean),mouse embryos [2]; [6],3.6±0.3 per cell
same,NEBD to metaphase and metaphase to anaphase times,"mouse embryos [2]; 500 nM GSK, eight- to sixteen-cell division",extended
same,mitotic index,mouse embryos [3]; 500 nM GSK923295,23%
same,metaphase cells with multiple misaligned chromosomes,mouse embryos [3]; 500 nM GSK923295,93%
same,mitotic arrest with simultaneous nocodazole,"mouse embryos [3]; 1 μM nocodazole + 500 nM GSK923295, 16 hr",mounted a robust mitotic arrest
same,mitotic index,mouse embryos [3]; 5 μM GSK923295,12%
same,metaphase cells with multiple misaligned chromosomes,mouse embryos [3]; 5 μM GSK923295,100%
same,misaligned chromosomes at anaphase onset harbouring Mad1:GFP at kinetochores,mouse embryos [4],80%
same,misaligned chromosomes at anaphase onset (mean),mouse embryos [4]; H2B:RFP and Mad1:EGFP-expressing embryos,3.5±0.4 per cell
COC(=O)Nc1nc2ccc(C(=O)c3cccs3)cc2[nH]1 [nocodazole],change in mitosis duration,mouse embryos [2]; blastocysts (~32-64 cell stage),prolonged mitosis appreciably
same,change in mitosis duration,mouse embryos [2]; morulae (8-16 cell stage),only a minimal extension of mitosis
same,change in mitosis duration,mouse embryos [2]; two-cell stage,prolonged mitosis appreciably
same,Anaphase lagging chromosomes,mouse embryos [2]; nocodazole-treated (10 nM) morulae,19 % of divisions
same,mitotic index,"mouse embryos [3]; 100 nM nocodazole, 16-hour exposure",40%
same,mitotic index,"mouse embryos [3]; 1 μM nocodazole, 16-hour exposure",95%
same,Mad2 at kinetochores,mouse embryos [3]; nocodazole-treated cells,Mad2 was evident at kinetochores
same,change in mitosis duration,mouse embryos [5]; morulae,not in morulae
same,change in mitosis duration,mouse embryos [5]; two-cell stage,extended mitosis at the two-cell stage
COC(=O)[C@H](CCCN/C(=N\C(=O)OCOC(=O)Cc1ccccc1)NC(=O)OCOC(=O)Cc1ccccc1)NS(=O)(=O)c1ccc(C)cc1 [proTAME],extension of mitosis duration,mouse embryos [2]; 10 nM proTAME vs DMSO,19%
same,increase in duration of mitosis,mouse embryos [2]; 10 nM proTAME vs DMSO,~10 min
same,incidence of misaligned chromosomes at anaphase onset,"mouse embryos [2]; 10 nM proTAME, control 28%, P=0.025",16%
same,duration of mitosis,"mouse embryos [2]; 10 nM proTAME, morula stage, control 51.7±1.4, P<0.0001",61.7 ± 2.3 min
same,micronuclei per cell in blastocyst,mouse embryos [1]; 10 nM proTAME,0.013 micronuclei per cell
same,micronuclei per cell in blastocyst,"mouse embryos [1]; ""nM"" proTAME (figure missing)",0.012 micronuclei per cell
same,blastocyst cell number,mouse embryos [1]; [7],did not affect blastocyst cell number
same,embryo development to blastocyst,mouse embryos [1]; [7],permissive of development to blastocyst
same,embryo development to blastocyst,mouse embryos [1]; proTAME 1-10 μM from the 2-cell stage,prevented embryo development to blastocyst
AZ3146,duration of mitosis,"mouse embryos [2]; 20 μM AZ3146, 16-32C transition, control 53±3 mins, P<0.0001",33 ± 1 min
same,chromosomes remaining misaligned at anaphase onset,"mouse embryos [2]; 20 μM AZ3146, control 24%, P<0.0001",63%
same,blastocyst cell numbers,mouse embryos [1]; AZ3146 (20 μM),Neither treatment prevented development to blastocyst or altered cell numbers
same,development to blastocyst,mouse embryos [1]; AZ3146 (20 μM),Neither treatment prevented development to blastocyst
same,number of micronuclei compared to controls,mouse embryos [1]; AZ3146-treated embryos,doubled
same,reversal of nocodazole-induced mitotic arrest,mouse embryos [3]; 100 nM nocodazole and 20 μM AZ3146,the arrest was reversible
"Mad2 MO: morpholino oligonucleotide against Mad2, 5′-GCTCTCGGGCGAGCTGCTGTGCCAT-3′ (Gene tools LLC) (all phosphorodiamidate morpholino (PMO))",blastocyst cell numbers,mouse embryos [1]; Mad2 MO microinjected,Neither treatment prevented development to blastocyst or altered cell numbers
same,development to blastocyst,mouse embryos [1]; Mad2 MO microinjected,Neither treatment prevented development to blastocyst
same,number of micronuclei compared to controls,mouse embryos [1]; Mad2 MO-injected embryos vs Control MO,doubled
same,timing of meiosis-I (polar body extrusion),oocytes,characteristic acceleration of meiosis-I

# — US20200080052A1, “METHOD OF REDUCING CHROMOSOME SEGREGATION ERROR IN CELLS OF THE EARLY EMBRYO” (CENTRE HOSPITALIER DE L'UNIVERSITÉ DE MONTRÉAL, priority 2018, published 2020)
